Measurements taken from patent US5512553A, “7-(substituted)-8-(substituted)-9-(substituted amino)-6-demethyl-6-deoxytetracyclines” (American Cyanamid Company, priority 1995, dated 1996).
Where a name gives a salt, the structure may show the parent alone.

What was measured:
[1] = test system: S. aureus IVES 1983 (MP) (meth. resistant); experiment: In vitro antibacterial evaluation, MIC by agar dilution; type: cell-based; settings: Staphylococcus aureus; agar dilution, Muller-Hinton II agar, 18 hours at 35° C.; S. aureus IVES 1983 (MP) (meth. resistant); read-out: MIC
Experimental: (§1) Method for In Vitro Antibacterial Evaluation (Table I)
(§2) The minimum inhibitory concentration (MIC), the lowest concentration of the antibiotic which inhibits growth of the test organism, is determined by the agar dilution method using Muller-Hinton II agar (Baltimore Biological Laboratories). An inoculum density of 1-5×10^5 CFU/ml and an antibiotic concentration (32-≤0.015 μg/ml) is used. The plates are incubated for 18 hours at 35° C. in a forced air incubator. The test organisms comprise strains sensitive to tetracycline and genetically defined strains that are resistant to tetracycline, due to inability to bind bacterial ribosomes (tetM).

[2] = test system: S. aureus UBMS 88-4 (sensitive); experiment: as above; type: cell-based; settings: Staphylococcus aureus; agar dilution, Muller-Hinton II agar, 18 hours at 35° C.; S. aureus UBMS 88-4 (sensitive); read-out: MIC
Experimental: as §1, §2

[3] = test system: E. coli UBMS 88-2 (sensitive); experiment: as above; type: cell-based; settings: Escherichia coli, 18 h
Experimental: as §1, §2

E. coli ATCC 25922 = experiment: as above; type: cell-based; settings: Escherichia coli, ATCC25922; agar dilution, Muller-Hinton II agar, 18 hours at 35° C.; E. coli ATCC 25922; read-out: MIC
Experimental: as §1, §2

[4] = test system: S. aureus UBMS 90-3 (sensitive); experiment: as above; type: cell-based; settings: Staphylococcus aureus; agar dilution, Muller-Hinton II agar, 18 hours at 35° C.; S. aureus UBMS 90-3 (sensitive); read-out: MIC
Experimental: as §1, §2

[5] = test system: S. aureus SMITH (MP) (sensitive); experiment: as above; type: cell-based; settings: Staphylococcus aureus; agar dilution, Muller-Hinton II agar, 18 hours at 35° C.; S. aureus SMITH (MP) (sensitive); read-out: MIC
Experimental: as §1, §2

Enteroc. spp. 12201 = experiment: as above; type: cell-based; settings: agar dilution, Muller-Hinton II agar, 18 hours at 35° C.; Enteroc. spp. 12201; read-out: MIC
Experimental: as §1, §2

S. faecal. ATCC 29212 = experiment: as above; type: cell-based; settings: agar dilution, Muller-Hinton II agar, 18 hours at 35° C.; S. faecal. ATCC 29212; read-out: MIC
Experimental: as §1, §2

[6] = test system: S. aureus ATCC 29213 (sensitive); experiment: as above; type: cell-based; settings: Staphylococcus aureus, ATCC29213; agar dilution, Muller-Hinton II agar, 18 hours at 35° C.; S. aureus ATCC 29213 (sensitive); read-out: MIC
Experimental: as §1, §2

[7] = test system: E. coli UBMS 89-2 (sensitive); experiment: as above; type: cell-based; settings: Escherichia coli, Muller-Hinton II agar, 18 hours at 35° C.
Experimental: as §1, §2

[8] = test system: S30 extract from E. coli strain MRE 600 (tetracycline sensitive); experiment: E. coli in vitro cell free protein translation system, Wild Type S30; type: biochemical; settings: for % Inhibition Wild Type S30: 35S-methionine incorporation, 30 minutes at 37° C.
Source text: (§3) E. coli in Vitro protein Translation System (Table II)
(§4) An in vitro, cell free, protein translation system using extracts from E. coli strain MRE 600 (tetracycline sensitive) and a derivative of MRE 600 containing the tetM determinant has been developed based on literature methods J. M. Pratt, Coupled Transcription-translation in Prokaryotic Cell-free Systems, Transcription and Translation, a Practical Approach, (B. D. Hames and S. J. Higgins, eds) p. 179-209, IRL Press, Oxford-Washington, 1984!.
(§5) Using the system described above, the tetracycline compounds of the present invention are tested for their ability to inhibit protein synthesis in vitro. Briefly, each 10 μl reaction contains S30 extract (a whole extract) made from either tetracycline sensitive cells or an isogenic tetracycline resistant (tetM) strain, low molecular weight components necessary for transcription and translation (i.e., ATP and GTP), a mix of 19 amino acids (no methionine), ^35 S labeled methionine, DNA template (either pBR322 or pUC119), and either DMSO (control) or the novel tetracycline compound to be tested ("novel TC") dissolved in DMSO.
(§6) The reactions are incubated for 30 minutes at 37° C. Timing is initiated with the addition of the S30 extract, the last component to be added. After 30 minutes, 2.5 μl of the reaction is removed and mixed with 0.5 ml of 1N NaOH to destroy RNA and tRNA. Two to three ml of 25% trichloroacetic acid is added and the mixture incubated at room temperature for 15 minutes. The trichloroacetic acid precipitated material is collected on Whatman GF/C filters and washed with a solution of 10% trichloroacetic acid. The filters are dried and the retained radioactivity, representing incorporation of ^35 S-methionine into polypeptides, is counted using standard liquid scintillation methods.
(§7) The percent inhibition (P.I.) of protein synthesis is determined to be: [formula]

[9] = test system: S. aureus UBMS 90-1 (tetM); experiment: microbe, parasite or virus in culture; type: cell-based; settings: Staphylococcus aureus, 18 h
Experimental: as §1, §2

E. coli UBMS 88-1 (tetB) = experiment: microbe, parasite or virus in culture; type: cell-based; settings: Escherichia coli, 18 h
Experimental: as §1, §2

[10] = test system: S. aureus UBMS 88-7 (tetK); experiment: microbe, parasite or virus in culture; type: cell-based; settings: Staphylococcus aureus, 18 h
Experimental: as §1, §2

[11] = test system: S. aureus UBMS 90-2 (tetM); experiment: microbe, parasite or virus in culture; type: cell-based; settings: Staphylococcus aureus, 18 h
Experimental: as §1, §2

[12] = test system: S. aureus UBMS 88-5 (tetM); experiment: microbe, parasite or virus in culture; type: cell-based; settings: Staphylococcus aureus, 18 h
Experimental: as §1, §2

[13] = test system: S30 extract from derivative of E. coli MRE 600 containing the tetM determinant; experiment: E. coli in vitro cell free protein translation system, TetM S30; type: biochemical; settings: cell-free extracts from strain MRE600 (tetM)
Source text: as §3, §4, §5, §6, §7

[14] = test system: tetracycline sensitive and resistant Gram-positive and Gram-negative bacteria; experiment: In vitro antibacterial activity, summary statements of the testing results; type: cell-based
Experimental: as §1, §2

CN(C)[C@@H]1C(O)=C(C(N)=O)C(=O)[C@@]2(O)C(O)=C3C(=O)c4c(cc(Cl)c(NC=O)c4O)CC3CC12 (stereo partly drawn) [A, 8-Chloro-4-(dimethylamino)-9-(formylamino)-1,4,4a,5,5a,6,11,12a-octahydro-3,10,12,12a-tetrahydroxy-1,11-dioxo-2-naphthacenecarboxamide hydrochloride or sulfate]
MIC [1]: 32 µg/mL | MIC [2]: < 0.015 µg/mL | MIC [3]: 0.12 µg/mL | MIC (E. coli ATCC 25922): 0.12 µg/mL | MIC [4]: < 0.015 µg/mL | MIC [5]: < 0.015 µg/mL | MIC (Enteroc. spp. 12201): 0.5 µg/mL | MIC (S. faecal. ATCC 29212): < 0.015 µg/mL | MIC [6]: < 0.015 µg/mL | MIC [7]: 0.25 µg/mL | % Inhibition Wild Type S30 ([8]; Conc. 0.3 mg/ml): 98% | % Inhibition Wild Type S30 ([8]; Conc. 1.0): 93% | inhibition of protein synthesis, in words ([8]; cell-free extracts from tetracycline susceptible strain MRE600): effectively inhibited | MIC [9]: 0.25 µg/mL | MIC (E. coli UBMS 88-1 (tetB)): 32 µg/mL | MIC [10]: 16 µg/mL | MIC [11]: 0.03 µg/mL | MIC [12]: 0.12 µg/mL | inhibition of protein synthesis, in words [13]: effectively inhibited | in vitro activity, in words ([14]; tetracycline resistant strains containing tetM (S. aureus UBMS 88-5, 90-1 and 90-2)): good in vitro activity | in vitro activity compared with minocycline, in words ([14]; tetracycline susceptible strains): equally as effective as minocycline
